From patent US9260388B2, “Process for preparing alkyl pyroglutamic acids” (DOW GLOBAL TECHNOLOGIES LLC, priority 2011, dated 2016)

Experiments:
Type in all cases: physicochemical
[1] = Critical micelle concentration (Kibron CMC) and surface tension, Kibron Delta-8 multichannel microtensiometer; conditions: for Kibron CMC: sodium salt in water, twelve two-fold dilutions starting at 1 wt %; for Surface Tension (1%): sodium salt, 1 wt % in water
Procedure: The critical micelle concentration (Kibron CMC) and surface tension of the N-alkyl pyroglutamic acids (as Na^+ salts) and related commercial surfactants were evaluated. For each sample, a total of twelve dilutions starting at 1 wt % were prepared, reducing the concentration in each dilution by half by taking an aliquot of the previous dilution and adding the same amount of water. The surface tension of all 12 dilutions was measured using a Kibron Delta-8 multichannel microtensiometer. Sample volume for each analysis was 50 μL.

[2] = Shake foam test (foam height); conditions: sodium salt, 0.1 wt % solution, shaken 20 times, t=0, average of three replicates
Procedure: Foaming profile of the N-alkyl pyroglutamates are evaluated using a shake foam test, and evaluated against sodium laureth sulfate. For each sample, a 0.1 wt % solution is prepared by diluting 50 mg active to 50 g in water. The 0.1 wt % solution is added to a 100 mL graduated cylinder and capped. The cylinder is shaken by hand 20 times, each time the cylinder is inverted and brought back to an upright position. Foam height (in mL) is defined as the highest point of the top layer of the foam in the graduated cylinder. If the top of the foam was not flat, the midpoint of the top of the foam was reported. Foam height is read immediately after the solution settled (t=0). Three replicates are done for each sample, and the reported foam height (in mL) is the average reading of the three replicates.

[3] = Water solubility of sodium salts; conditions: for pH: pH of the sodium salt solution after neutralization
Procedure: Selected N-alkyl pyroglutamic acids are converted into their sodium salt by neutralizing them in water with sodium hydroxide. In general, a known amount of sample is placed in a vial and a known amount of water is added. Sample is neutralized with 25 wt % sodium hydroxide in water until pH is >7. Mild heating (50° C.) is applied when necessary to aid dissolution. The final mass is recorded. The weight percent of the solution is determined by mass of the sodium salt over the total mass of solution, and multiplying by 100. The pH of the solution is recorded after neutralization. No effort was done to prepare a saturated solution.

SMILES | Kibron CMC [1] [ppm] | Surface Tension (1%) [1] [Dynes/cm] | Shake Foam t = 0 [2] [mL] | pH [3] | Solubility ([3]; sodium salt in water, neutralized with NaOH, no saturated solution prepared) [wt %]
CCCCCCCCCCC(CCCCCCCC)CN1C(=O)CCC1C(=O)O (stereo not shown) [Example 4] | 78 | 29 | 29 | 7.1 | 15.4
CCCCCC(CCC)CN1C(=O)CCC1C(=O)O (stereo not shown) [Example 2] | >10000 | 34 | 11 | 7.3 | –
CCC(CCCC(C)CCCC(C)C)CCN1C(=O)CCC1C(=O)O (stereo not shown) [Example 1] | 625 | 38 | 36 | 10.0 | –
